In the CheMixHub viscosity set:

Assay: xn = mol fraction of the nth substance listed

CC1CCCCC1 + CCCCCO
303.15 K, 101.33 kPa
Settings	viscosity [mPa·s]
x1 = 0.0947	2.283
x1 = 0.2614	1.737
x1 = 0.42	1.289
x1 = 0.5783	0.968
x1 = 0.7422	0.777
x1 = 0.9027	0.663
x2 = 0.1011	0.7025
x2 = 0.2073	0.7951
x2 = 0.3017	0.8911
x2 = 0.4214	1.039
x2 = 0.4998	1.16
x2 = 0.5988	1.325
x2 = 0.7007	1.535
x2 = 0.8084	1.852
x2 = 0.9144	2.305

CCCNCCC + CCCCCO
viscosity [mPa·s], 101.33 kPa
Settings	x1 = 0.0952	x1 = 0.1918	x1 = 0.2881	x1 = 0.3825	x1 = 0.5157	x1 = 0.616	x1 = 0.7094	x1 = 0.8061	x1 = 0.9023
303.15 K	2.51	2.185	1.875	1.593	1.244	1.034	0.8687	0.7254	0.6098
313.15 K	2.051	1.767	1.51	1.281	1.02	0.8452	0.7187	0.6045	0.5061

CCOC(=O)c1ccccc1 + CCCCCO
viscosity [mPa·s], 101.3 kPa
Settings	x1 = 0.0771	x1 = 0.1582	x1 = 0.2437	x1 = 0.3339	x1 = 0.4292	x1 = 0.53	x1 = 0.6369	x1 = 0.7504	x1 = 0.8712
303 K	2.883	2.764	2.656	2.533	2.404	2.273	2.135	1.985	1.865
308 K	2.541	2.449	2.349	2.25	2.154	2.031	1.92	1.8	1.691
313 K	2.224	2.139	2.051	1.962	1.875	1.787	1.701	1.615	1.528
318 K	2.005	1.931	1.86	1.789	1.723	1.648	1.56	1.485	1.41
323 K	1.798	1.739	1.68	1.626	1.569	1.505	1.439	1.376	1.313

OC(c1ccccc1)(c1ccccc1)c1ccccc1 + CCCCCOC(C)=O
Settings	viscosity [mPa·s]
298.15 K, 101 kPa, x2 = 0.5	1.9

CC(C)O + CCCCO
298.15 K, 101 kPa
Settings	viscosity [mPa·s]
x2 = 0.1026	2.057
x2 = 0.2012	2.105
x2 = 0.302	2.145
x2 = 0.4045	2.207
x2 = 0.5086	2.269
x2 = 0.6002	2.327
x2 = 0.734	2.402
x2 = 0.7964	2.437
x2 = 0.9021	2.506

CC1CCCCC1 + CCCCO
303.15 K, 101.33 kPa
Settings	viscosity [mPa·s]
x1 = 0.1	1.825
x1 = 0.2604	1.383
x1 = 0.42	1.072
x1 = 0.5788	0.854
x1 = 0.7414	0.719
x1 = 0.9013	0.643
x2 = 0.0995	0.6691
x2 = 0.2019	0.7305
x2 = 0.3088	0.8105
x2 = 0.3988	0.89
x2 = 0.5011	0.9898
x2 = 0.5989	1.122
x2 = 0.6911	1.272
x2 = 0.7839	1.45
x2 = 0.9179	1.858

CCCCCl + CCCCO
viscosity [mPa·s], 101 kPa
Settings	x1 = 0.0749	x1 = 0.2028	x1 = 0.3021	x1 = 0.4122	x1 = 0.5016	x1 = 0.6048	x1 = 0.7044	x1 = 0.8062	x1 = 0.9064
298.15 K	2.121	1.523	–	0.9486	–	0.6572	0.5679	0.4955	0.4465
313.15 K	1.449	1.081	0.8789	0.7145	0.6192	0.5213	0.4589	0.4114	0.3742

CCCNCCC + CCCCO
viscosity [mPa·s]
Settings	303.15 K	313.15 K
101 kPa, x1 = 0.01005	2.225	–
101 kPa, x1 = 0.01919	2.196	–
101 kPa, x1 = 0.03366	2.165	–
101 kPa, x1 = 0.0409	2.145	–
101 kPa, x1 = 0.04956	2.121	–
101 kPa, x1 = 0.05853	2.098	–
101 kPa, x1 = 0.07021	2.064	–
101 kPa, x1 = 0.07906	2.04	–
101 kPa, x1 = 0.09184	2.006	–
101.33 kPa, x1 = 0.0954	2.038	1.621
101.33 kPa, x1 = 0.1904	1.797	1.426
101.33 kPa, x1 = 0.2859	1.567	1.252
101.33 kPa, x1 = 0.4163	1.299	1.031
101.33 kPa, x1 = 0.5205	1.106	0.8851
101.33 kPa, x1 = 0.615	0.9506	0.7697
101.33 kPa, x1 = 0.7107	0.8177	0.6675
101.33 kPa, x1 = 0.8108	0.6968	0.5735
101.33 kPa, x1 = 0.8924	0.6105	0.5037

CCOC(=O)[C@@H](O)[C@H](O)C(=O)OCC + CCCCO
viscosity [mPa·s], 101 kPa
Settings	x1 = 0.0999	x1 = 0.1999	x1 = 0.3	x1 = 0.4001	x1 = 0.4999	x1 = 0.5999	x1 = 0.7001	x1 = 0.8001	x1 = 0.8999
293.15 K	3.887	5.56	8.24	12.44	18.99	29.36	42.81	68.14	118.3
298.15 K	3.353	4.704	6.807	9.946	14.79	22.09	31.37	47.6	78.41
303.15 K	2.902	3.987	5.63	8.08	11.64	16.9	23.32	34.35	54.15
308.15 K	2.527	3.408	4.729	6.627	9.328	13.22	17.74	25.53	38.75
313.15 K	2.217	2.928	3.975	5.454	7.552	10.48	13.83	19.41	28.56
318.15 K	1.953	2.557	3.433	4.631	6.283	8.549	11.11	15.2	21.73
323.15 K	1.746	2.26	2.993	3.98	5.303	7.092	9.107	12.19	16.99

CCOC(=O)c1ccccc1 + CCCCO
viscosity [mPa·s], 101.3 kPa
Settings	x1 = 0.0664	x1 = 0.1379	x1 = 0.2152	x1 = 0.299	x1 = 0.3901	x1 = 0.4897	x1 = 0.5988	x1 = 0.719	x1 = 0.852
303 K	2.029	2.002	1.967	1.935	1.902	1.874	1.839	1.809	1.78
308 K	1.87	1.837	1.814	1.783	1.754	1.713	1.679	1.646	1.618
313 K	1.599	1.582	1.567	1.559	1.54	1.52	1.499	1.484	1.47
318 K	1.444	1.439	1.426	1.42	1.407	1.4	1.39	1.381	1.372
323 K	1.324	1.318	1.309	1.301	1.29	1.284	1.274	1.269	1.259

CCCNCCC + CCCCOCCO
viscosity [mPa·s], 100 kPa
Settings	298.15 K	303.15 K	308.15 K
x2 = 0.05	0.558	0.519	0.489
x2 = 0.1003	0.62	0.576	0.538
x2 = 0.1502	0.691	0.64	0.597
x2 = 0.1999	0.775	0.709	0.662
x2 = 0.2999	0.982	0.888	0.826
x2 = 0.3998	1.254	1.118	1.035
x2 = 0.5001	1.549	1.37	1.255
x2 = 0.5999	1.887	1.654	1.51
x2 = 0.6997	2.216	1.935	1.752
x2 = 0.7999	2.527	2.18	1.97
x2 = 0.8996	2.731	2.356	2.141
x2 = 0.9499	2.787	2.437	2.209

CCOC(C)(C)C + CCCCOCCO
viscosity [mPa·s], 101 kPa
Settings	293.15 K	298.15 K	303.15 K
x1 = 0.0499	2.901	2.558	2.239
x1 = 0.1	2.603	2.314	2.038
x1 = 0.1511	2.336	2.092	1.85
x1 = 0.2007	2.107	1.899	1.687
x1 = 0.2489	1.91	1.731	1.545
x1 = 0.2999	1.725	1.573	1.412
x1 = 0.3421	1.589	1.455	1.312
x1 = 0.4018	1.417	1.305	1.186
x1 = 0.45	1.296	1.198	1.094
x1 = 0.5002	1.183	1.097	1.007
x1 = 0.5521	1.079	1.004	0.925
x1 = 0.5998	0.993	0.926	0.857
x1 = 0.6538	0.906	0.847	0.786
x1 = 0.6987	0.84	0.788	0.734
x1 = 0.7501	0.773	0.727	0.679
x1 = 0.8	0.714	0.673	0.632
x1 = 0.8492	0.661	0.626	0.59
x1 = 0.8997	0.612	0.581	0.55
x1 = 0.9493	0.57	0.541	0.514

CCCNCCC + CCCCOCCOCCO
viscosity [mPa·s], 100 kPa
Settings	298.15 K	303.15 K	308.15 K
x2 = 0.05007	0.5938	0.5507	0.5178
x2 = 0.1002	0.6906	0.6377	0.5959
x2 = 0.1502	0.8054	0.7394	0.6889
x2 = 0.2	0.9457	0.8562	0.7964
x2 = 0.3001	1.339	1.183	1.093
x2 = 0.3999	1.79	1.571	1.437
x2 = 0.4999	2.311	1.998	1.819
x2 = 0.5997	2.952	2.519	2.248
x2 = 0.7	3.584	3.042	2.71
x2 = 0.7999	4.119	3.507	3.124
x2 = 0.8998	4.617	3.926	3.5
x2 = 0.9491	4.857	4.132	3.683

CC(=O)[O-].CCCC[NH2+]CCO + CCCCn1cc[n+](C)c1.COP(=O)([O-])OC
viscosity [mPa·s], 101 kPa
Settings	x1 = 0.1014	x1 = 0.2979	x1 = 0.4067	x1 = 0.4989	x1 = 0.8011	x1 = 0.8913
293.15 K	730.5	–	–	502.5	741.5	–
298.15 K	–	392.5	359.5	–	–	632.5

CC(=O)[O-].CCCC[NH2+]CCO + CCCCn1cc[n+](C)c1.O=S(=O)([N-]S(=O)(=O)C(F)(F)F)C(F)(F)F
Settings	viscosity [mPa·s]
308.15 K, 101 kPa, x1 = 0.901	343.5

CCOC(=O)[C@@H](O)[C@H](O)C(=O)OCC + CCCO
viscosity [mPa·s], 101 kPa
Settings	x1 = 0.1	x1 = 0.2	x1 = 0.2999	x1 = 0.3999	x1 = 0.5001	x1 = 0.5999	x1 = 0.7	x1 = 0.7996	x1 = 0.9
293.15 K	3.256	5.15	8.204	13.19	21	32.75	52.88	84.67	135.1
298.15 K	2.832	4.359	6.759	10.53	16.09	24.37	37.73	57.79	88.2
303.15 K	2.467	3.7	5.586	8.415	12.64	18.48	27.67	40.91	60.18
308.15 K	2.164	3.17	4.671	6.886	10.06	14.35	20.86	29.93	42.64
313.15 K	1.913	2.731	3.92	5.661	8.093	11.3	16.05	22.45	31.15
318.15 K	1.694	2.385	3.38	4.782	6.694	9.164	12.71	17.37	23.52
323.15 K	1.52	2.108	2.94	4.092	5.623	7.561	10.28	13.77	18.27
